Results from the NIST ThermoML archive (doi:10.1021/je049787p).
Numbers after ± are expanded uncertainties.

Experiment: xn = mol fraction of the nth substance listed
Conditions: 101.3 kPa, Liquid; for electrical conductivity: Alternating current cell with electrodes

C=CCn1cc[n+](C)c1.[Cl-] [1-allyl-3-methylimidazolium chloride] + CCO
Conditions	electrical conductivity, 293.15 K [S/m]	electrical conductivity, 303.15 K [S/m]	electrical conductivity, 313.15 K [S/m]	electrical conductivity, 323.15 K [S/m]	electrical conductivity, 333.15 K [S/m]	viscosity, 293.15 K [mPa·s]	viscosity, 303.15 K [mPa·s]	viscosity, 313.15 K [mPa·s]	viscosity, 323.15 K [mPa·s]	viscosity, 333.15 K [mPa·s]
x2 = 0	0.382	0.44	0.501	0.562	0.624	66 ± 10	44.7 ± 5.9	25.3 ± 3.5	20.6 ± 2.8	16.2 ± 2.3
x2 = 0.1	0.485	0.543	0.604	0.66	0.722	54.6 ± 3	44.1 ± 5.8	24.6 ± 3.4	20 ± 2.8	16 ± 2.3
x2 = 0.2	0.627	0.682	0.74	0.801	0.859	45.7 ± 6	42.2 ± 5.5	24.1 ± 3.3	19.5 ± 2.7	15.4 ± 2.2
x2 = 0.3	0.703	0.759	0.818	0.876	0.935	39.1 ± 5.1	30.9 ± 4.1	22.6 ± 3.1	18.7 ± 2.6	15.1 ± 2.1
x2 = 0.35	0.8	0.855	0.91	0.969	1.02	30.5 ± 4.1	25.1 ± 3.4	19.4 ± 2.7	16 ± 2.2	14.4 ± 2
x2 = 0.45	0.884	0.943	0.999	1.06	1.11	26.4 ± 3.5	22.1 ± 3	20.1 ± 2.8	16.7 ± 2.3	13.1 ± 1.9
x2 = 0.5	0.952	1.01	1.06	1.11	1.17	23.2 ± 3.1	18.1 ± 2.5	15.3 ± 2.2	13.6 ± 1.9	11.2 ± 1.6
x2 = 0.55	1.03	1.09	1.14	1.2	1.25	20.4 ± 2.8	16.3 ± 2.3	14 ± 2	12.5 ± 1.8	10.1 ± 1.5

C=CCn1cc[n+](C)c1.[Cl-] [1-allyl-3-methylimidazolium chloride] + O
Conditions	electrical conductivity, 293.15 K [S/m]	electrical conductivity, 303.15 K [S/m]	electrical conductivity, 313.15 K [S/m]	electrical conductivity, 323.15 K [S/m]	electrical conductivity, 333.15 K [S/m]	viscosity, 293.15 K [mPa·s]	viscosity, 303.15 K [mPa·s]	viscosity, 313.15 K [mPa·s]	viscosity, 323.15 K [mPa·s]	viscosity, 333.15 K [mPa·s]
x2 = 0	0.382	0.44	0.501	0.562	0.624	66 ± 10	44.7 ± 5.9	25.3 ± 3.5	20.6 ± 2.8	16.2 ± 2.3
x2 = 0.3	0.817	0.874	0.93	0.985	1.04	51.3 ± 1.5	40.7 ± 5.3	24.1 ± 3.3	19.6 ± 2.7	15 ± 2.1
x2 = 0.45	1.11	1.17	1.23	1.28	1.33	42.7 ± 5.6	31.4 ± 4.2	22.9 ± 3.1	18.2 ± 2.5	15.1 ± 2.1
x2 = 0.59	1.36	1.42	1.47	1.53	1.58	34.4 ± 4.5	27.5 ± 3.7	22.7 ± 3.1	18.3 ± 2.5	14.9 ± 2.1
x2 = 0.65	1.55	1.61	1.66	1.72	1.77	29.1 ± 3.9	24.2 ± 3.3	20.9 ± 2.8	17.6 ± 2.4	14.3 ± 2
x2 = 0.7	1.73	1.78	1.84	1.89	1.94	26.1 ± 3.5	22 ± 3	19.5 ± 2.7	16.4 ± 2.3	13 ± 1.9
x2 = 0.75	1.84	1.89	1.95	2	2.05	22.6 ± 3.1	18.7 ± 2.6	15.4 ± 2.2	12.2 ± 1.8	10.1 ± 1.5
x2 = 0.8	1.93	1.99	2.04	2.09	2.14	19.3 ± 2.6	15.6 ± 2.2	12.7 ± 1.8	11.1 ± 1.6	9.2 ± 1.4
